How the values were obtained:
Assay type in all cases: cell-based
PfCRT^Dd2 [1] = target: T1, PfCRT^Dd2 (Plasmodium falciparum, UniProt Q9N623, A220S/I356T/K76T/M74I/N326S/N75E/Q271E/R371I); assay: [3H]CQ uptake into Xenopus oocytes, cis-inhibition by unlabelled solute; conditions: PfCRTDd2 oocytes, background [3H]CQ accumulation subtracted, normalised to oocyte type control
Method in brief: (§1)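 Washed oocytes (ten per treatment) were exposed to label in pH 5.5 ND96 for 1.5 h at 27.5 °C. Buffer was then removed, cells rinsed in ice-cold ND96, lysed in SDS and counted.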

PfCRT^Ecu1110 [2] = target: T2, PfCRT^Ecu1110 (Plasmodium falciparum, UniProt Q9N623, A220S/I356L/K76T/N326D); assay: as above; conditions: for PfCRT-mediated [3H]CQ transport, cis-inhibition (% PfCRTEcu1110 control): PfCRTEcu1110 oocytes, background [3H]CQ accumulation subtracted, normalised to oocyte type control; for [3H]CQ transport (% PfCRTEcu1110 control), cis-inhibition, PfCRTEcu1110: PfCRT-mediated component (background subtracted), sheet title says normalised to PfCRTDd2 control, mean ± SEM, SEM
T2 sequence (Q9N623 whole entry A220S/I356L/K76T/N326D): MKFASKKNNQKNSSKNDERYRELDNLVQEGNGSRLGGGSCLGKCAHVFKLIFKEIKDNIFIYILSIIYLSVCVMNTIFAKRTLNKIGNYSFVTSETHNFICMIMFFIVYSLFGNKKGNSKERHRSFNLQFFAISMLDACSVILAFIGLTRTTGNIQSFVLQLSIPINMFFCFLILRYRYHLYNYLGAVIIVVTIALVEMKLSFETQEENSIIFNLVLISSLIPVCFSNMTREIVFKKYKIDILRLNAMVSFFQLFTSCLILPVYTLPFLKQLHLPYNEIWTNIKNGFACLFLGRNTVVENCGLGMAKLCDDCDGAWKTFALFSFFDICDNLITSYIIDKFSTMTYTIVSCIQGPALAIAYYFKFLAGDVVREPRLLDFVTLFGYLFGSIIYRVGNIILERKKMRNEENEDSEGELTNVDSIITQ
Method in brief: as §1

PfCRT^Dd2 [3] = target: T1, PfCRT^Dd2; assay: cell-based; conditions: for PfCRT-mediated [3H]CQ transport, trans-stimulation (% PfCRTDd2 control): PfCRTDd2 oocytes, normalised to oocyte type control; for [3H]CQ transport (% PfCRTDd2 control), trans-stimulation, PfCRTDd2: PfCRT-mediated component (background subtracted), mean ± SEM, SEM
Method in brief: (§2)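 Transport measured in Xenopus oocytes expressing the transporters, 1.5 h at 27.5 °C in ND96 pH 5.5 unless noted. For trans-stimulation, VF-6 injected in 25 nL ND96 at pH 5.0–7.0 or Na^+-free (choline) buffer; intracellular levels based on ~400 nL oocyte volume. Ten oocytes per treatment, ≥4 experiments.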

PfCRT^3D7 = PfCRT^3D7 (Plasmodium falciparum, UniProt Q8IBZ9); assay: cell-based; conditions: PfCRT3D7 oocytes, normalised to oocyte type control
Sequence of PfCRT^3D7 (Q8IBZ9 59-398): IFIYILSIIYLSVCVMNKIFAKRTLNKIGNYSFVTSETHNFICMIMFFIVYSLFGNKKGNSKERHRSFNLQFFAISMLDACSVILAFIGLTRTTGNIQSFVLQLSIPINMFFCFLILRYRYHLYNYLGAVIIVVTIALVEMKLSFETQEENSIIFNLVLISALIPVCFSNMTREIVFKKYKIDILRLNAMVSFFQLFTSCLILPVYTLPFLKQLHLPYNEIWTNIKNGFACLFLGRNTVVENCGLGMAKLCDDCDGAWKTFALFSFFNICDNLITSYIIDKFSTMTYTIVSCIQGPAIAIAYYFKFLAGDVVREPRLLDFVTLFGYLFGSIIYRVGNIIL
Method in brief: as §2

PfCRT^Ecu1110 [4] = target: T2, PfCRT^Ecu1110; assay: cell-based; conditions: for PfCRT-mediated [3H]CQ transport, trans-stimulation (% PfCRTEcu1110 control): PfCRTEcu1110 oocytes, normalised to oocyte type control; for [3H]CQ transport (% PfCRTDd2 control), trans-stimulation, PfCRTEcu1110: PfCRT-mediated component (background subtracted), sheet title says normalised to PfCRTDd2 control, mean ± SEM, SEM
Method in brief: as §2

[5] = [test solute]i = 5 mM (intracellular)
[6] = [test solute]i = 45 mM (intracellular; 30 mM for some solutes due to solubility)
[7] = [test solute]i = 5 mM (injected)
[8] = [test solute]i = 45 mM (30 mM for some solutes due to solubility)

T1 sequence (Q9N623 whole entry A220S/I356T/K76T/M74I/N326S/N75E/Q271E/R371I): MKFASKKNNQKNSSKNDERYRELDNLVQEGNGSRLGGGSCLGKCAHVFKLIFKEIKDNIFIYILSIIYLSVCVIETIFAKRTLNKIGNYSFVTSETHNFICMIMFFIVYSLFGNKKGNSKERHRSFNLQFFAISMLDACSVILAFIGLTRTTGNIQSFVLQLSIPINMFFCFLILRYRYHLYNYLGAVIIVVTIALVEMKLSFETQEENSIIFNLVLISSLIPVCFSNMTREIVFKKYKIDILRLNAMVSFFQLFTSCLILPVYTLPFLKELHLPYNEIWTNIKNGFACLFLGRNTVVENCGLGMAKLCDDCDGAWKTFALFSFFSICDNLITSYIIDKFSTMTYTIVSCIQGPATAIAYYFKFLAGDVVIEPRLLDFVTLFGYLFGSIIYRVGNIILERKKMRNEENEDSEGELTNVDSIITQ

Substance	PfCRT-mediated [3H]CQ transport, cis-inhibition (% PfCRTDd2 control) (PfCRT^Dd2 [1]; [test solute] = 0.5 mM)	PfCRT-mediated [3H]CQ transport, cis-inhibition (% PfCRTDd2 control) (PfCRT^Dd2 [1]; [test solute] = 1 mM)	PfCRT-mediated [3H]CQ transport, cis-inhibition (% PfCRTDd2 control) (PfCRT^Dd2 [1]; [test solute] = 2 mM)	PfCRT-mediated [3H]CQ transport, cis-inhibition (% PfCRTEcu1110 control) (PfCRT^Ecu1110 [2]; [test solute] = 0.5 mM)	PfCRT-mediated [3H]CQ transport, cis-inhibition (% PfCRTEcu1110 control) (PfCRT^Ecu1110 [2]; [test solute] = 1 mM)	PfCRT-mediated [3H]CQ transport, cis-inhibition (% PfCRTEcu1110 control) (PfCRT^Ecu1110 [2]; [test solute] = 2 mM)	[3H]CQ transport (% PfCRTEcu1110 control), cis-inhibition, PfCRTEcu1110 (PfCRT^Ecu1110 [2]; [test solute] = 2 mM)	PfCRT-mediated [3H]CQ transport, trans-stimulation (% PfCRTDd2 control) (PfCRT^Dd2 [3]; [5])	PfCRT-mediated [3H]CQ transport, trans-stimulation (% PfCRTDd2 control) (PfCRT^Dd2 [3]; [6])	[3H]CQ transport (% PfCRTDd2 control), trans-stimulation, PfCRTDd2 (PfCRT^Dd2 [3]; [7])	[3H]CQ transport (% PfCRTDd2 control), trans-stimulation, PfCRTDd2 (PfCRT^Dd2 [3]; [8])	PfCRT-mediated [3H]CQ transport, trans-stimulation (% PfCRT3D7 control) (PfCRT^3D7; [5])	PfCRT-mediated [3H]CQ transport, trans-stimulation (% PfCRT3D7 control) (PfCRT^3D7; [6])	PfCRT-mediated [3H]CQ transport, trans-stimulation (% PfCRTEcu1110 control) (PfCRT^Ecu1110 [4]; [5])	PfCRT-mediated [3H]CQ transport, trans-stimulation (% PfCRTEcu1110 control) (PfCRT^Ecu1110 [4]; [6])	[3H]CQ transport (% PfCRTDd2 control), trans-stimulation, PfCRTEcu1110 (PfCRT^Ecu1110 [4]; [7])	[3H]CQ transport (% PfCRTDd2 control), trans-stimulation, PfCRTEcu1110 (PfCRT^Ecu1110 [4]; [8])	[3H]CQ transport (% PfCRTEcu1110 control), cis-inhibition, PfCRTEcu1110 (PfCRT^Ecu1110 [2]; [test solute] = 0.5 mM)
HVDDMP [HP-6]	22 ± 2.9 % PfCRTDd2 control	16 ± 1.2 % PfCRTDd2 control	4.1 ± 0.1 % PfCRTDd2 control	40 ± 1.0 % PfCRTEcu1110 control	31 ± 1.6 % PfCRTEcu1110 control	21 ± 1.6 % PfCRTEcu1110 control	7.0 ± 0.02 % PfCRTEcu1110 control	103 ± 1.1 % PfCRTDd2 control	112 ± 1.1 % PfCRTDd2 control	103 ± 1.1 % PfCRTDd2 control	112 ± 1.1 % PfCRTDd2 control	142 ± 3.3 % PfCRT3D7 control	190 ± 4.3 % PfCRT3D7 control	122 ± 4.2 % PfCRTEcu1110 control	139 ± 3.4 % PfCRTEcu1110 control	36 ± 1.3 % PfCRTEcu1110 control	42 ± 1.3 % PfCRTEcu1110 control	–
HVDDMPN [HN-7]	37 ± 1.7 % PfCRTDd2 control	20 ± 0.5 % PfCRTDd2 control	9.2 ± 1.1 % PfCRTDd2 control	36 ± 1.6 % PfCRTEcu1110 control	31 ± 3.5 % PfCRTEcu1110 control	21 ± 1.3 % PfCRTEcu1110 control	7.0 ± 0.05 % PfCRTEcu1110 control	100 ± 3.2 % PfCRTDd2 control	98 ± 3.5 % PfCRTDd2 control	100 ± 3.2 % PfCRTDd2 control	98 ± 3.5 % PfCRTDd2 control	142 ± 4.5 % PfCRT3D7 control	187 ± 4.5 % PfCRT3D7 control	132 ± 4.3 % PfCRTEcu1110 control	140 ± 4.2 % PfCRTEcu1110 control	40 ± 2.5 % PfCRTEcu1110 control	42 ± 2.4 % PfCRTEcu1110 control	11 ± 0.6 % PfCRTEcu1110 control
HVDDMPNA [HA-8]	48 ± 3.1 % PfCRTDd2 control	27 ± 0.4 % PfCRTDd2 control	20 ± 1.3 % PfCRTDd2 control	50 ± 2.1 % PfCRTEcu1110 control	40 ± 2.5 % PfCRTEcu1110 control	27 ± 1.4 % PfCRTEcu1110 control	–	96 ± 3.1 % PfCRTDd2 control	96 ± 2.1 % PfCRTDd2 control	–	–	99 ± 3.8 % PfCRT3D7 control	97 ± 4.1 % PfCRT3D7 control	95 ± 2.2 % PfCRTEcu1110 control	99 ± 3.8 % PfCRTEcu1110 control	–	–	–

— publication PMC7413254 (Nature Communications, 2020)
